One experiment relates to MCF-7 cells. The experiment can be described thus: E2 stimulated proliferation of MCF-7 cells (cell counts). The experiment is classed as cell-based, human. The text has this:
Briefly, cells were inoculated into 12-well dishes at 1×10^4 cells per well on day 0 in 5% charcoal-stripped serum (CSS). […] Triplicate wells were counted on days 1-4 to determine the effect of 103(f) on cell growth.

A further experiment concerns the target T1, ER-α (Homo sapiens, UniProt P03372).
T1 construct: endogenous in cells; host or cells: MCF-7
T1 sequence (P03372 1-595): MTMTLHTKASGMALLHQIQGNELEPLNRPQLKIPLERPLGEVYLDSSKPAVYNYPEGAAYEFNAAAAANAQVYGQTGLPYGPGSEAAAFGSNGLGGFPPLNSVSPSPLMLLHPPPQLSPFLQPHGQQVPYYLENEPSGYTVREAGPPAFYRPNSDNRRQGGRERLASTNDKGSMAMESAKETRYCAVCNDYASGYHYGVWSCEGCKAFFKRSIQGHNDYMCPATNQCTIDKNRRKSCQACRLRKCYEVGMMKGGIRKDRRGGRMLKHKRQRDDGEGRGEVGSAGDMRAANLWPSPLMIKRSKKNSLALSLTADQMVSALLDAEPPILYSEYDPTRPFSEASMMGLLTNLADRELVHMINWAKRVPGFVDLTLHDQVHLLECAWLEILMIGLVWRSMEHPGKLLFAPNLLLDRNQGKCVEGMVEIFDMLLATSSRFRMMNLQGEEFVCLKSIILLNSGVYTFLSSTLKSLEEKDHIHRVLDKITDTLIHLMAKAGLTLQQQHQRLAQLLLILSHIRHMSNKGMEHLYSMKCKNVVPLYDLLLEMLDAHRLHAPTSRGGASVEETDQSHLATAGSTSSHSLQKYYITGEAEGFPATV
Kind of experiment: ERE-TK-Luc reporter assay of E2-stimulated ER-α transcriptional activity in MCF-7 cells. The experiment is classed as cell-based. Conditions: for IC80: MCF7, read-out: IC80 (concentration required for inhibition of ER-α activity by 80%); for IC50: read-out: IC50 (concentration required for inhibition of ER-α activity by 50%). The method, then: Briefly, MCF7 or T47D cells are transfected overnight with an ERE-TK-Luc reporter construct. An ERE-TK-Luc construct contains an estrogen response element (ERE) upstream of a minimal thymidine kinase (TK) promoter that drives the expression of the luciferase (Luc) reporter gene. After transfection, the cells are subsequently washed and allowed to recover for several hours. […] The cells are subsequently harvested for luciferase reporter assays.
Three compounds were tested for their ability to inhibit ER-α activity. […] Initially, each compound was tested at doses of 1 μM and 50 μM.
A general note: A reporter such as luciferase makes a cellular process visible.

For a further experiment, the system named is LCC9. The settings on record: LCC9, ER-α +; cited from earlier work.
For a further experiment, the system named is LCC1. Conditions: LCC1, ER-α +; cited from earlier work.
Another experiment concerns LCC2. The settings on record: LCC2, ER-α +; cited from earlier work.
For the next experiment, the system named is MCF-7. The settings on record: MCF-7, ER-α +; cited from earlier work.

Molecules are shown by their SMILES.

In the case of `CC(C)=CC1C(COC(=O)c2cc3c(cc2Cl)OCO3)C1(C)C` (stereo not drawn) [Compound 103(f)], the “effect on E2-stimulated cell growth” value in the experiment with MCF-7 cells (5 μM or 20 μM in the presence of 10 nM E2, P<0.01) was “blocked most of the E2-stimulated cell growth”. Moreover, the “effect on cell growth, compound alone” value in the experiment with MCF-7 cells (5 μM or 20 μM, without E2, compared with DMSO, days 1-4) is “little or no effect on cell growth”. On ER-α, the IC80 is 5 µM and the IC50 is 3 µM.
As to `O=C(O)CCCc1ccc2ccccc2c1` [Compound 201], on ER-α, the IC80 came out at 50 µM and the IC50 worked out at 4 µM.
For `Nc1nc(Cc2ccccc2)nc(Cc2ccccc2)c1-c1ccccc1` [Compound 301], at ER-α, the IC80 is 40 µM and the IC50 is 12 µM.
Take `C[C@]12CC[C@@H]3c4ccc(O)cc4CC[C@H]3[C@@H]1CC[C@@H]2O` [Compound E2, 17β-estradiol]: the “cell density by day 4” value with MCF-7 cells (DMSO+E2 (10 nM), seeded 1×10^4 cells per well, 2% CSS) was 9×10^4 cells per well. Also, the “Response to Estradiol (E2)” value with LCC9 is reported as “E2-insensitive growth; some E2-responsive”; with LCC1, “Partially E2-depenedent growth”; with LCC2 it was “E2-dependent growth”; in the experiment on MCF-7, “E2-responsive; E2-dependent growth”.
As to `C[C@]12CC[C@@H]3c4ccc(O)cc4C[C@@H](CCCCCCCCC[S+]([O-])CCCC(F)(F)C(F)(F)F)[C@H]3[C@@H]1CC[C@@H]2O` (stereo partly drawn) [Fulvestrant], the “Response to Fulvestrant” value is given as “Resistant” in the experiment on LCC9, “Sensitive” in the experiment with LCC1, “Sensitive” in the experiment on LCC2 and “Sensitive” in the experiment on MCF-7.
With `CC/C(=C(\c1ccccc1)c1ccc(OCCN(C)C)cc1)c1ccccc1` [Tamoxifen], the “Response to Tamoxifen” value in the experiment on LCC9 was “Resistant”; in the experiment with LCC1 it was “Sensitive”; with LCC2 it was “Resistant”; in the experiment with MCF-7 it was “Sensitive”.

The values above are taken from patent US10160716B2, “Compounds and methods of use thereof for treating tumors” (Georgetown University, priority 2012, dated 2018).
